# In patent publication US20050287085A1, “Composition for improving the physico-chemical properties of apatite-based materials, uses thereof and method using same” (DENTSPLY INTERNATIONAL INC., priority 2002, published 2005):
# Experiment: Substitution in treated hydroxyapatite, mass spectrometry
# Description: The analysis of the samples of treated hydroxyapatite is continued by mass spectrometry. The percentage of calcium substituted by titanium and the percentage of hydroxyl groups substituted by fluorine are compared with those obtained after bringing the hydroxyapatite into contact with the sodium fluoride solution.
smiles,measurement,value
"[F-].[Na+] [NaF, Sodium fluoride]",Substitution of Ca by Ti,0.3%
same,Substitution of OH by F,52.0%
